For 15 molecules, TGI and GI50 results are on record in PubChem BioAssay (NCI).

Each structure is given as a SMILES string. “And” between values parts separate entries of the source, which are not always exact repeats. Equal values may be shown once.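 Compound exposure: 48 hours, 5 concentrations, 96-well plates. GI50: concentration for 50% inhibition of growth. TGI is the concentration that stops growth completely.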

Among the test systems are A549 NSCLC; CCRF-CEM leukemia; HCT-116 colon; HCT-15 colon; MALME-3M melanoma; OVCAR-3 ovarian; OVCAR-8 ovarian; SF-268 CNS; SF-295 CNS; SK-OV-3 ovarian; SN12C renal; SR leukemia; TK-10 renal.
Assay in all cases: NCI tumour cell line growth inhibition, 48 h

On to `CN(C)Cc1cc(C(C)(C)C)ccc1-c1ccc(C(C)(C)C)cc1CN(C)C`, for which the TGI with A549 NSCLC, with CCRF-CEM leukemia, in the assay with HCT-116 colon, in the assay on HCT-15 colon, with MALME-3M melanoma and with OVCAR-3 ovarian was over 100 µM in each case. Also, the TGI with OVCAR-8 ovarian, in the assay with SF-268 CNS, with SF-295 CNS, in the assay on SK-OV-3 ovarian, in the assay on SN12C renal and in the assay with SR leukemia was over 100 µM each time. The TGI with TK-10 renal is over 100 µM.

Turning to `CN(C)CC1COC2Cc3ccccc3C1O2` (configuration not stated), the TGI with A549 NSCLC, with CCRF-CEM leukemia, in the assay on HCT-116 colon, with HCT-15 colon, with MALME-3M melanoma and in the assay with OVCAR-3 ovarian was over 100 µM throughout. Besides, the TGI with OVCAR-8 ovarian, in the assay with SF-268 CNS, with SF-295 CNS, with SK-OV-3 ovarian, with SN12C renal and with SR leukemia was over 100 µM each time. In the assay on TK-10 renal, this molecule showed a TGI of over 100 µM.

Turning to `Brc1c(C#CCC(c2ccccc2)(c2ccccc2)c2ccccc2)ccc(C#CCC(c2ccccc2)(c2ccccc2)c2ccccc2)c1Br`, the TGI in the assay on A549 NSCLC, with CCRF-CEM leukemia, in the assay with HCT-116 colon, in the assay with HCT-15 colon, in the assay on MALME-3M melanoma and with OVCAR-3 ovarian was over 100 µM throughout. Besides, the TGI in the assay with OVCAR-8 ovarian, with SF-268 CNS, with SF-295 CNS, in the assay on SK-OV-3 ovarian, in the assay on SN12C renal and in the assay with SR leukemia was over 100 µM throughout. In addition, in the assay with TK-10 renal, the TGI is over 100 µM.

For the molecule `O=C1NC(N2CCCCC2)=N/C1=C\c1cccs1`, the TGI in the assay with A549 NSCLC, with CCRF-CEM leukemia, in the assay with HCT-116 colon, with HCT-15 colon, in the assay with MALME-3M melanoma and in the assay with OVCAR-3 ovarian was over 100 µM throughout. Moreover, the TGI in the assay with OVCAR-8 ovarian, in the assay on SF-268 CNS, in the assay with SF-295 CNS, with SK-OV-3 ovarian, with SN12C renal and in the assay with SR leukemia was over 100 µM each time. The molecule also yielded a TGI in the assay on TK-10 renal of over 100 µM.

In the case of `O=C1CC(=O)NC(=NN2C(=O)/C(=C/c3ccccc3)N=C2c2ccccc2)N1`, the TGI in the assay with A549 NSCLC, in the assay with CCRF-CEM leukemia, in the assay with HCT-116 colon, in the assay with HCT-15 colon, with MALME-3M melanoma and in the assay on OVCAR-3 ovarian was over 100 µM throughout. For the same molecule, the TGI with OVCAR-8 ovarian, in the assay with SF-268 CNS, in the assay on SF-295 CNS, in the assay on SK-OV-3 ovarian, in the assay on SN12C renal and in the assay on SR leukemia was over 100 µM in each case. This molecule also registered a TGI with TK-10 renal of over 100 µM.

With `COc1ccc2c(c1)/C(=C\c1c(C)nc3sc(C)cn13)C(=O)N2`, the TGI in the assay with A549 NSCLC is over 100 µM; with CCRF-CEM leukemia, 2.32 µM; in the assay with HCT-116 colon it was 25 µM; with HCT-15 colon, 74.6 µM; in the assay with MALME-3M melanoma it was over 100 µM; with OVCAR-3 ovarian, 3.93 µM. Besides, the TGI is 41.6 µM in the assay on OVCAR-8 ovarian; 53.7 µM in the assay with SF-268 CNS; over 20.4 µM in the assay with SF-295 CNS; 23 µM in the assay on SK-OV-3 ovarian; over 100 µM with SN12C renal; over 75.6 µM in the assay with SR leukemia. The molecule further registered a TGI in the assay with TK-10 renal of over 100 µM.

In the case of `CC(=O)NNc1nc(C)c(C(/C=C/c2ccc([N+](=O)[O-])cc2)=N/NC(N)=S)s1`, the TGI in the assay with A549 NSCLC, with CCRF-CEM leukemia, in the assay with HCT-116 colon, in the assay with HCT-15 colon, in the assay with MALME-3M melanoma and with OVCAR-3 ovarian was over 100 µM in each case. For the same molecule, the TGI with OVCAR-8 ovarian, with SF-268 CNS, with SF-295 CNS, in the assay on SK-OV-3 ovarian, in the assay with SN12C renal and with SR leukemia was over 100 µM in each case. The molecule further returned a TGI in the assay with TK-10 renal of over 100 µM.

For `Cc1cc(-c2nc3ccccc3s2)ccc1N`, the TGI in the assay with A549 NSCLC is over 100 µM; with CCRF-CEM leukemia it was over 100 µM; in the assay with HCT-116 colon it was over 78.7 µM; in the assay on HCT-15 colon it was over 89.3 µM; in the assay on MALME-3M melanoma it was over 81.5 µM; in the assay on OVCAR-3 ovarian it was over 86.6 µM. Further, the TGI in the assay on OVCAR-8 ovarian was over 89.3 µM; with SF-268 CNS, over 83.8 µM; with SF-295 CNS it was over 85.3 µM; in the assay with SK-OV-3 ovarian, over 100 µM; in the assay on SN12C renal it was over 77.9 µM; with SR leukemia, over 89.8 µM. In the assay on TK-10 renal, this molecule gave a TGI of over 100 µM.

For the molecule `COC1C(O)C(C)OC(OC2C(Oc3cccc4c(O)c5c(=O)oc6ccc(C)c7c(=O)oc(c34)c5c67)OC(C)C(O)C2O)C1O` (configuration not stated), the GI50 with A549 NSCLC is 5.48 µM; in the assay on MALME-3M melanoma it was 1830 nM; in the assay on OVCAR-8 ovarian, 1650 nM; in the assay with SF-268 CNS it was 1010 nM; in the assay on SF-295 CNS, 1120 nM; in the assay with SK-OV-3 ovarian, 3.66 µM. In addition, the GI50 in the assay on SN12C renal was 1410 nM. Besides, the TGI was 53 µM and 40.4 µM with A549 NSCLC; 14.4 µM and 5.06 µM in the assay with CCRF-CEM leukemia; 3.4 µM and 5.71 µM in the assay with HCT-116 colon; 63.6 µM and 34 µM with HCT-15 colon; 5.22 µM and 5.75 µM in the assay with MALME-3M melanoma; 10.7 µM and 8.63 µM in the assay on OVCAR-3 ovarian. For the same molecule, the TGI in the assay with OVCAR-8 ovarian was 52.8 µM and 5.65 µM; with SF-268 CNS, 11.1 µM and 12.6 µM; in the assay on SF-295 CNS it was 11.9 µM and 4.21 µM; in the assay on SK-OV-3 ovarian, 17.2 µM and 23.3 µM; in the assay on SN12C renal, 7.74 µM and 20.9 µM; in the assay with SR leukemia, 6.47 µM. The TGI in the assay on TK-10 renal is 21 µM.

`CC(C)(C)c1cc2c(O)c(c1)Cc1cc(C(C#N)(Cc3ccc4ccccc4c3)Cc3ccc4ccccc4c3)cc(c1O)Cc1cc(C(C)(C)C)cc(c1O)Cc1cc(C(C#N)(Cc3ccc4ccccc4c3)Cc3ccc4ccccc4c3)cc(c1O)C2`: the TGI with A549 NSCLC, with CCRF-CEM leukemia, in the assay with HCT-116 colon, in the assay on HCT-15 colon, in the assay with MALME-3M melanoma and with OVCAR-3 ovarian was over 100 µM each time. Moreover, the TGI in the assay on OVCAR-8 ovarian, in the assay with SF-268 CNS, in the assay on SF-295 CNS, with SK-OV-3 ovarian, in the assay with SN12C renal and with SR leukemia was over 100 µM each time. This molecule also gave a TGI in the assay on TK-10 renal of over 100 µM.

For the molecule `CC(C)OP(=O)(OC(C)C)/C(C#N)=C/c1ccco1`, the TGI with A549 NSCLC, with CCRF-CEM leukemia, in the assay on HCT-116 colon, in the assay with HCT-15 colon, in the assay on MALME-3M melanoma and with OVCAR-3 ovarian was over 100 µM each time. The TGI in the assay with OVCAR-8 ovarian, in the assay on SF-268 CNS, in the assay with SF-295 CNS, in the assay with SK-OV-3 ovarian, in the assay on SN12C renal and in the assay with SR leukemia was over 100 µM in each case. This molecule also showed a TGI in the assay with TK-10 renal of over 100 µM.

Take `COc1cc(C(=O)O[C@@H]2[C@@H](OC(=O)c3cc(OC)c(OC)c(OC)c3)[C@@H](OC)O[C@@H]3CO[C@@H](c4ccccc4)O[C@@H]23)cc(OC)c1OC`: the TGI in the assay on A549 NSCLC, with CCRF-CEM leukemia, in the assay with HCT-116 colon, in the assay with HCT-15 colon, in the assay with MALME-3M melanoma and with OVCAR-3 ovarian was over 100 µM in each case. Moreover, the TGI in the assay on OVCAR-8 ovarian, in the assay with SF-268 CNS, in the assay with SF-295 CNS, in the assay on SK-OV-3 ovarian, in the assay with SN12C renal and in the assay on SR leukemia was over 100 µM throughout. Moreover, the TGI in the assay with TK-10 renal was over 100 µM.

For `CC=CCOc1cc(NC(=S)OC(C)C)ccc1Cl` (mixture of isomers), the TGI in the assay with A549 NSCLC turned out to be 33.1 µM; in the assay on CCRF-CEM leukemia, 64.3 µM; in the assay with HCT-116 colon, 33.6 µM; in the assay on HCT-15 colon, 33.7 µM; in the assay on MALME-3M melanoma it was 29.6 µM; with OVCAR-3 ovarian, 38.1 µM. For the same molecule, the TGI in the assay on OVCAR-8 ovarian came to 33.9 µM; in the assay with SF-268 CNS it was 37.9 µM; with SF-295 CNS, 35.5 µM; in the assay with SK-OV-3 ovarian it was 45.8 µM; in the assay on SN12C renal, 29 µM; with SR leukemia, 44.6 µM. The TGI with TK-10 renal was 29.2 µM.

For `Oc1ccccc1C=Nc1ccc(-c2nc3ccccc3[nH]2)cc1`, the TGI was over 100 µM with A549 NSCLC; 71.5 µM with CCRF-CEM leukemia; over 100 µM with HCT-116 colon; over 100 µM in the assay on HCT-15 colon; over 100 µM in the assay with MALME-3M melanoma; over 100 µM in the assay with OVCAR-3 ovarian. In addition, the TGI with OVCAR-8 ovarian, in the assay on SF-268 CNS, in the assay on SF-295 CNS, with SK-OV-3 ovarian, in the assay on SN12C renal and in the assay on SR leukemia was over 100 µM in each case. In the assay with TK-10 renal, this molecule registered a TGI of over 100 µM.

On to `CC(C)(C)OC(=O)N(O)CCCn1cnc2c(N)ncnc21`, for which the TGI in the assay with A549 NSCLC, with CCRF-CEM leukemia, in the assay with HCT-116 colon, with HCT-15 colon, in the assay on MALME-3M melanoma and with OVCAR-3 ovarian was over 100 µM throughout. Also, the TGI with OVCAR-8 ovarian, in the assay on SF-268 CNS, with SF-295 CNS, in the assay on SK-OV-3 ovarian, with SN12C renal and with SR leukemia was over 100 µM in each case. The TGI in the assay with TK-10 renal is over 100 µM.
